Experimental data taken from patent US10316028B2, “Orexin receptor antagonists” (Heptares Therapeutics Limited, priority 2012, dated 2019).

Target: T1, human Orexin-2 receptor (Homo sapiens, UniProt O43614)
T1 construct: expressed in transfected cells; host or cells: HEK293 cells (transient transfection, Genejuice); membranes
T1 sequence (O43614 1-444): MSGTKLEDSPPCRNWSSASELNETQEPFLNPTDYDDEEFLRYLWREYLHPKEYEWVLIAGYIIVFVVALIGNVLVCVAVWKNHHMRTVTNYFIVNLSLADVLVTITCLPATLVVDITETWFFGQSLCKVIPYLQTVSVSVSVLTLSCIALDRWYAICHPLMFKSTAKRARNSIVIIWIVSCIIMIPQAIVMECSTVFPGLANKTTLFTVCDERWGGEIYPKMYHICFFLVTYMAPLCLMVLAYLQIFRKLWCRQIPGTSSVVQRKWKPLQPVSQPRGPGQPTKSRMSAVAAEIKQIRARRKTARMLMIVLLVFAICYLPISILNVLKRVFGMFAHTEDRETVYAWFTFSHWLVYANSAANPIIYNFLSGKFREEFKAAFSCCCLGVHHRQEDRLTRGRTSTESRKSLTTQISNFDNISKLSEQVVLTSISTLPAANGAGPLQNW
Experiment: 3H-EMPA radioligand binding assay
Details: 3H-EMPA displacement, membranes of HEK293 cells transfected with human Orexin-2 receptor; KI by Cheng-Prussoff; read-out: OX2 pKi ave (converted)
Procedure: cDNA encoding the human Orexin-2 receptor was transfected into HEK293 cells using the transfection reagent Genejuice (Novagen). Forty-eight hours after transfection, cells were harvested and washed twice with ice cold phosphate-buffered saline. The pellet was resuspended in ice-cold buffer containing 20 mM Tris-HCl, pH 7.4, 1 mM EDTA and homogenised with an Ultraturax for 30 s at maximum speed. After centrifugation at 48,000 g for 30 min at 4° C., the pellet was resuspended and spun again. The final pellet was resuspended and frozen at −80° C. before use. Protein concentration was determined using the BCA protein assay method.
^3H-EMPA Radioligand Binding Assay
At the end of the incubation, membranes were filtered onto a unifilter, a 96-well white microplate with bonded GF/B filter pre-incubated with 0.5% polyethylenimine, with a Tomtec cell harvester and washed 4 times with distilled water. […] Radioactivity on the filter was counted (1 min) on a microbeta counter after addition of 50 µL of scintillation fluid. […] IC50 values were derived from the inhibition curve and the equilibrium dissociation constant (KI) values were calculated using the Cheng-Prussoff equation.

| SMILES | Ki |
| --- | --- |
| COc1cccc(CCN2C(=O)N(Cc3c(F)cccc3F)c3ccccc3S2(=O)=O)c1 [Example 66, 4-(2,6-Difluorobenzyl)-2-[2-(3-methoxyphenyl)ethyl]-2H-1,2,4-benzothiadiazin-3(4H)-one 1,1-dioxide] | 550 nM |
| COc1ccc(N2C(=O)N(Cc3ccccc3F)c3ccccc3S2(=O)=O)cc1OC [Example 67, 2-(3,4-Dimethoxyphenyl)-4-(2-fluorobenzyl)-2H-1,2,4-benzothiadiazin-3(4H)-one 1,1-dioxide] | 7.08 nM |
| COc1ccc(N2C(=O)N(Cc3c(Cl)cccc3Cl)c3ccccc3S2(=O)=O)cc1OC [Example 68, 4-(2,6-Dichlorobenzyl)-2-(3,4-dimethoxyphenyl)-2H-1,2,4-benzothiadiazin-3(4H)-one 1,1-dioxide] | 0.708 nM |
| COc1cc(OC)cc(N2C(=O)N(Cc3c(F)cccc3Cl)c3ccccc3S2(=O)=O)c1 [Example 69, 4-(2-Chloro-6-fluorobenzyl)-2-(3,5-dimethoxyphenyl)-2H-1,2,4-benzothiadiazin-3(4H)-one 1,1-dioxide] | 1.07 nM |
| COc1cc(OC)cc(N2C(=O)N(Cc3c(Cl)cccc3Cl)c3ccccc3S2(=O)=O)c1 [Example 70, 4-(2,6-Dichlorobenzyl)-2-(3,5-dimethoxyphenyl)-2H-1,2,4-benzothiadiazin-3(4H)-one 1,1-dioxide] | 2 nM |
| COc1ccc(N2C(=O)N(Cc3cccc(Cl)c3F)c3ccccc3S2(=O)=O)cc1OC [Example 71, 4-(3-Chloro-2-fluorobenzyl)-2-(3,4-dimethoxyphenyl)-2H-1,2,4-benzothiadiazin-3(4H)-one 1,1-dioxide] | 7.08 nM |
| COc1ccc(N2C(=O)N(Cc3ccc(Cl)cc3F)c3ccccc3S2(=O)=O)cc1OC [Example 72, 4-(4-Chloro-2-fluorobenzyl)-2-(3,4-dimethoxyphenyl)-2H-1,2,4-benzothiadiazin-3(4H)-one 1,1-dioxide] | 10.5 nM |
| O=C1N(Cc2c(F)cccc2Cl)c2ccccc2S(=O)(=O)N1c1cccc(SC(F)(F)F)c1 [Example 73, 4-(2-Chloro-6-fluorobenzyl)-2-{3-[(trifluoromethyl)sulfanyl]phenyl}-2H-1,2,4-benzothiadiazin-3(4H)-one 1,1-dioxide] | 2.09 nM |
| CSc1cccc(N2C(=O)N(Cc3c(F)cccc3Cl)c3ccc(F)cc3S2(=O)=O)c1 [Example 74, 4-(2-Chloro-6-fluorobenzyl)-7-fluoro-2-[3-(methylsulfanyl)phenyl]-2H-1,2,4-benzothiadiazin-3(4H)-one 1,1-dioxide] | 11.7 nM |
| O=C1N(Cc2c(F)cccc2F)c2ccccc2S(=O)(=O)N1c1cccc(SC(F)(F)F)c1 [Example 75, 4-(2,6-Difluorobenzyl)-2-{3-[(trifluoromethyl)sulfanyl]phenyl}-2H-1,2,4-benzothiadiazin-3(4H)-one 1,1-dioxide] | 8.32 nM |
| CSc1cccc(N2C(=O)N(Cc3c(F)cccc3Cl)c3cc(F)ccc3S2(=O)=O)c1 [Example 76, 4-(2-Chloro-6-fluorobenzyl)-6-fluoro-2-[3-(methylsulfanyl)phenyl]-2H-1,2,4-benzothiadiazin-3(4H)-one 1,1-dioxide] | 14.8 nM |
| COc1ccc(N2C(=O)N(Cc3c(C)cccc3C)c3ccccc3S2(=O)=O)cc1OC [Example 77, 4-(2,6-Dimethylbenzyl)-2-(3,4-methoxyphenyl)-2H-1,2,4-benzothiadiazin-3(4H)-one 1,1-dioxide] | 8.91 nM |
| COc1cc(N2C(=O)N(Cc3c(F)cccc3Cl)c3ccccc3S2(=O)=O)cc(OC)c1OC [Example 78, 4-(2-Chloro-6-fluorobenzyl)-2-(3,4,5-trimethoxyphenyl)-2H-1,2,4-benzothiadiazin-3(4H)-one 1,1-dioxide] | 4.07 nM |
| COc1ccc(N2C(=O)N(Cc3c(C)cccc3F)c3ccccc3S2(=O)=O)cc1OC [Example 79, 4-(2-Fluoro-6-methylbenzyl)-2-(3,4-methoxyphenyl)-2H-1,2,4-benzothiadiazin-3(4H)-one 1,1-dioxide] | 0.389 nM |
| COc1c(C)cc(N2C(=O)N(Cc3ccc(F)cc3Cl)c3ccccc3S2(=O)=O)cc1C [Example 80, 4-(2-Chloro-4-fluorobenzyl)-2-(4-methoxy-3,5-dimethylphenyl)-2H-1,2,4-benzothiadiazin-3(4H)-one 1,1-dioxide] | 7.59 nM |
| COc1c(C)cc(N2C(=O)N(Cc3c(F)cccc3Cl)c3ccccc3S2(=O)=O)cc1C [Example 81, 4-(2-Chloro-6-fluorobenzyl)-2-(4-methoxy-3,5-dimethylphenyl)-2H-1,2,4-benzothiadiazin-3(4H)-one 1,1-dioxide] | 0.0832 nM |
| Cc1cc(N2C(=O)N(Cc3c(F)cccc3Cl)c3ccccc3S2(=O)=O)cc(C)c1O [Example 82, 4-(2-Chloro-6-fluorobenzyl)-2-(4-hydroxy-3,5-dimethylphenyl)-2H-1,2,4-benzothiadiazin-3(4H)-one 1,1-dioxide] | 3.31 nM |
| CSc1cccc(N2C(=O)N(Cc3cc(C)nn3C)c3ccccc3S2(=O)=O)c1 [Example 83, 4-[(1,3-Dimethyl-1H-pyrazol-5-yl)methyl]-2-[3-(methylsulfanyl)phenyl]-2H-1,2,4-benzothiadiazin-3(4H)-one 1,1-dioxide] | 295 nM |
| COc1ccc(N2C(=O)N(Cc3c(C)ccnc3C)c3ccccc3S2(=O)=O)cc1OC [Example 84, 2-(3,4-Dimethoxyphenyl)-4-[(2,4-dimethylpyridin-3-yl)methyl]-2H-1,2,4-benzothiadiazin-3(4H)-one 1,1-dioxide] | 490 nM |
| COc1ccc(N2C(=O)N(Cc3c(F)cncc3F)c3ccccc3S2(=O)=O)cc1OC [Example 85, 4-[(3,5-Difluoropyridin-4-yl)methyl]-2-(3,4-dimethoxyphenyl)-2H-1,2,4-benzothiadiazin-3(4H)-one 1,1-dioxide] | 60.3 nM |
| COc1ccc(N2C(=O)N(Cc3ncc(C)cc3C)c3ccccc3S2(=O)=O)cc1OC [Example 86, 4-[(3,5-Dimethylpyridin-2-yl)methyl]-2-(3,4-dimethoxyphenyl)-2H-1,2,4-benzothiadiazin-3(4H)-one 1,1-dioxide] | 74.1 nM |
| CSc1cccc(N2C(=O)N(Cc3ncccc3C)c3ccccc3S2(=O)=O)c1 [Example 87, 4-[(3-Methylpyridin-2-yl)methyl]-2-[3-(methylsulfanyl)phenyl]-2H-1,2,4-benzothiadiazin-3(4H)-one 1,1-dioxide] | 35.5 nM |
| COc1ccc(N2C(=O)N(Cc3ncccc3F)c3ccccc3S2(=O)=O)cc1OC [Example 88, 2-(3,4-Dimethoxyphenyl)-4-[(3-fluoropyridin-2-yl)methyl]-2H-1,2,4-benzothiadiazin-3(4H)-one 1,1-dioxide] | 28.2 nM |
| COc1ccc(N2C(=O)N(Cc3ncc(Br)cc3F)c3ccccc3S2(=O)=O)cc1OC [Example 89, 4-[(5-Bromo-3-fluoropyridin-2-yl)methyl]-2-(3,4-dimethoxyphenyl)-2H-1,2,4-benzothiadiazin-3(4H)-one 1,1-dioxide] | 38.9 nM |
| COc1ccc(N2C(=O)N(Cc3c(Cl)cncc3Cl)c3ccccc3S2(=O)=O)cc1OC [Example 90, 4-[(3,5-Dichloropyridin-4-yl)methyl]-2-(3,4-dimethoxyphenyl)-2H-1,2,4-benzothiadiazin-3(4H)-one 1,1-dioxide] | 3.02 nM |
| COc1ccc(N2C(=O)N(Cc3c(F)cccc3Cl)c3ccncc3S2(=O)=O)cc1OC [Example 91, 4-(2-Chloro-6-fluorobenzyl)-2-(3,4-dimethoxyphenyl)-2H-pyrido[4,3-e][1,2,4]thiadiazin-3(4H)-one 1,1-dioxide] | 38 nM |
